Results published in patent publication US11602551B2, “Use of inosine for the treatment of t-reg deficiency” (BioGaia AB, priority 2016, dated 2023).

Tested on: Splenic lymphocytes
Test: Lymphocyte proliferation test (XTT)
Format: cell-based, mice
Protocol: Splenic lymphocytes were split into 96-well plates at an initial density of 2×10^4 cells per well and were incubated with different doses of inosine under control, 40 μg/ml of LPS or 10 μg/ml of PHA condition, respectively. After 96 h, cell viability was measured by TACS XTT cell proliferation assay kit (Trevigen, Inc. Gaithersburg, Md.).

O=c1[nH]cnc2c1ncn2[C@@H]1O[C@H](CO)[C@@H](O)[C@H]1O [inosine]
proliferation of PHA-stimulated T-lymphocytes (96 h treatment, 10 μg/ml of PHA): does not inhibit
proliferation of LPS-stimulated B-lymphocytes (96 h treatment, 40 μg/ml of LPS): does not inhibit
proliferation of lymphocytes in vitro (different doses of inosine, 96 h): did not inhibit
